Measured values as given in patent publication US9775353B2, “Pesticidally active heterocyclic derivatives with sulphur containing substituents” (Syngenta Participations AG, priority 2014, dated 2017).

Legend:
[1] = tested on: Spodoptera littoralis (Egyptian cotton leaf worm); assay: Example B1: Activity against Spodoptera littoralis (larvicide, feeding/residual contact, preventive); type: in vivo; conditions: foliar, 72 h, cotton leaf discs sprayed, L1 larvae, mortality, repellent effect, feeding behaviour, growth regulation 3 days after treatment
Text: Example B1: Activity Against Spodoptera littoralis (Egyptian Cotton Leaf Worm) (Larvicide, Feeding/Residual Contact Activity, Preventive) Cotton leaf discs were placed on agar in a 24-well microtiter plate and sprayed with test solutions. After drying, the leaf discs were infested with 5 L1 larvae. The samples were checked for mortality, repellent effect, feeding behaviour, and growth regulation 3 days after treatment (DAT).

[2] = tested on: Plutella xylostella (diamond back moth); assay: Example B2: Activity against Plutella xylostella (larvicide, feeding/residual contact, preventive); type: in vivo; conditions: 120 h, artificial diet, L2 larvae, larval mortality, antifeedant, growth regulation after 5 days
Description: Example B2: Activity Against Plutella xylostella (Diamond Back Moth) (Larvicide, Feeding/Residual Contact Activity, Preventive) 24-well microtiter plate (MTP) with artificial diet was treated with test solutions by pipetting. After drying, the MTPs were infested with L2 larvae (10-15 per well). After an incubation period of 5 days, samples were checked for larval mortality, antifeedant and growth regulation.

[3] = tested on: Diabrotica balteata (corn root worm); assay: Example B3: Activity against Diabrotica balteata (larvae L2 on maize sprouts, feeding/contact, preventative); type: in vivo; conditions: 120 h, maize sprouts sprayed, larval mortality and growth regulation after 5 days
Description: Example B3: Activity Against Diabrotica balteata (Corn Root Worm) (Larvae L2 on Maize Sprouts, Feeding/Contact, Preventative) Maize sprouts, placed on an agar layer in 24 well micro titer plates were treated with test solutions by spraying. After drying, the MTPs were infested with L2 larvae (6-10 per well). After an incubation period of 5 days, samples were checked for larval mortality and growth regulation.

[4] = tested on: Bemisia tabaci (cotton white fly); assay: Example B5: Activity against Bemisia tabaci (adulticide contact activity, preventative); type: in vivo; conditions: foliar, 168 h, cotton leaf discs sprayed, adult white flies, mortality 7 DAT
Description: Example B5: Activity Against Bemisia tabaci (Cotton White Fly) (Adulticide Contact Activity, Preventative), Adult Cotton leaf discs were placed on agar in a 24-well microtiter plate and sprayed with test solutions. After drying, the leaf discs were infested with adult white flies. After an incubation period of 7 DAT, samples were checked for mortality and special effects (e.g. phytotoxicity).

[5] = tested on: Spodoptera littoralis (Egyptian cotton leaf worm); assay: Example B7: Activity against Spodoptera littoralis (systemic activity); type: in vivo; conditions: 120 h, systemic via lettuce roots in agar, mortality, repellent effect, feeding behavior, growth regulation 5 days after infestation
Text: Example B7: Activity Against Spodoptera littoralis (Egyptian Cotton Leaf Worm) (Systemic Activity) Test compounds were applied by pipette into 24 well plates and mixed with agar. Lettuce seeds were placed on the agar and the multi well plate is closed by another plate which contains also agar. After 7 days the roots have absorbed the compound and the lettuce has grown into the lid plate. The lettuce leaves were now cut off into the lid plate. Spodoptera eggs were pipetted through a plastic stencil on a humid gel blotting paper and the plate closed with it. The samples are checked for mortality, repellent effect, feeding behavior, and growth regulation 5 days after infestation.

[6] = tested on: Myzus persicae (green peach aphid); assay: Example B8: Activity against Myzus persicae (feeding/residual contact, preventive, mixed population); type: in vivo; conditions: foliar, 144 h, sunflower leaf discs sprayed, mixed ages, mortality 6 DAT
Description: Example B8: Activity Against Myzus persicae (Green Peach Aphid) (Feeding/Residual Contact Activity, Preventive), Mixed Population Sunflower leaf discs were placed on agar in a 24-well microtiter plate and sprayed with test solutions. After drying, the leaf discs were infested with an aphid population of mixed ages. After an incubation period of 6 DAT, samples were checked for mortality and special effects (e.g. phytotoxicity).

[7] = tested on: Euschistus heros (neotropical brown stink bug); assay: Example B10: Activity against Euschistus heros; type: in vivo; conditions: 120 h, soybean leaf sprayed, N-2 nymphs, mortality 5 days after infestation
Description: Example B10: Activity Against Euschistus heros (Neotropical Brown Stink Bug) Soybean leaf on agar in 24-well microtiter plates were sprayed with aqueous test solutions prepared from 10,000 ppm DMSO stock solutions. After drying the leaf were infested with N-2 nymphs. The samples were assessed for mortality 5 days after infestation.

[8] = tested on: Thrips tabaci (onion thrips); assay: Example B11: Activity against Thrips tabaci; type: in vivo; conditions: foliar, 144 h, application rate 400 ppm, sunflower leaf discs sprayed, mixed ages, 6 days after infestation
Description: Example B11: Activity Against Thrips tabaci (Onion Thrips)
(§1) Sunflower leaf discs were placed on agar in 24-well microtiter plates and sprayed with aqueous test solutions prepared from 10,000 ppm DMSO stock solutions. After drying the leaf discs were infested with a thrips population of mixed ages. The samples were assessed for mortality 6 days after infestation.

[9] = tested on: Tetranychus urticae (two-spotted spider mite); assay: Example B12: Activity against Tetranychus urticae; type: in vivo; conditions: foliar, 192 h, application rate 400 ppm, bean leaf discs sprayed, mixed population (mobile stages), 8 days after infestation
Description: Example B12: Activity Against Tetranychus urticae (Two-Spotted Spider Mite)
as §1, with “Bean” for “Sunflower”, “discs” for “discs were placed”, “were” for “and”, “mite” for “thrips”, “on mixed population (mobile stages) 8” for “6”

Work on `CCS(=O)(=O)c1cc(-c2cc(Cl)c(F)c(Cl)c2)cnc1-c1nc2cc(C(F)(F)F)ncc2n1C` [Compound P43] yielded a melting point of 235 to 237 °C.
`CCS(=O)(=O)c1cc(-c2ccc(C#N)cc2)cnc1-c1nc2cc(C(F)(F)F)ncc2n1C` [Compound P36] gave a pest or weed control at 400 ppm [1] greater than 80%, a pest or weed control at 400 ppm [2] greater than 80% and a pest or weed control at 400 ppm [3] greater than 80%. The pest or weed control at 400 ppm [4] was greater than 80%, the pest or weed control at 12.5 ppm [5] was no less than 80% and the pest or weed control at 400 ppm [6] was greater than 80%. For the same compound, the pest or weed control at 400 ppm [7] was greater than 80%, the mortality at 400 ppm [8] was no less than 80% and the mortality at 400 ppm [9] was no less than 80%.
`CCS(=O)(=O)c1cc(-c2cc(F)cc(F)c2)cnc1-c1nc2cc(C(F)(F)F)ncc2n1C` [Compound P7] gave a pest or weed control at 400 ppm [1] greater than 80%, a pest or weed control at 400 ppm [2] greater than 80% and a pest or weed control at 400 ppm [3] greater than 80%. It also gave a pest or weed control at 400 ppm [4] greater than 80%, a pest or weed control at 12.5 ppm [5] of no less than 80% and a pest or weed control at 400 ppm [6] greater than 80%. The pest or weed control at 400 ppm [7] was greater than 80% and the mortality at 400 ppm [8] was no less than 80%.
Work on `CCS(=O)(=O)c1cc(-c2cc(Cl)cc(Cl)c2)cnc1-c1nc2cc(C(F)(F)F)ncc2n1C` [Compound P42] yielded a melting point of 270 to 272 °C.
Compound `CCS(=O)(=O)c1cc(-c2ccc(F)cc2)cnc1-c1nc2cc(C(F)(F)F)ncc2n1C` [Compound P13] has a pest or weed control at 400 ppm [1] greater than 80%, a pest or weed control at 400 ppm [2] greater than 80% and a pest or weed control at 400 ppm [3] greater than 80%. For the same compound, the pest or weed control at 400 ppm [4] was greater than 80%, the pest or weed control at 12.5 ppm [5] was no less than 80% and the pest or weed control at 400 ppm [6] was greater than 80%. For the same compound, the pest or weed control at 400 ppm [7] was greater than 80% and the mortality at 400 ppm [8] was no less than 80%.
In the case of `CCS(=O)(=O)c1cc(-c2ccc(F)cc2F)cnc1-c1nc2cc(C(F)(F)F)ncc2n1C` [Compound P41], the melting point is reported as 223 to 225 °C.
`CCS(=O)(=O)c1cc(-c2ccccc2C(F)(F)F)cnc1-c1nc2cc(C(F)(F)F)ncc2n1C` [Compound P4] gave a pest or weed control at 400 ppm [1] greater than 80%, a pest or weed control at 400 ppm [3] greater than 80% and a mortality at 400 ppm [9] of no less than 80%.
`CCS(=O)(=O)c1cc(-c2cccc(OC(F)(F)F)c2)cnc1-c1nc2cc(C(F)(F)F)ncc2n1C` [Compound P25] showed a pest or weed control at 400 ppm [1] greater than 80%, a pest or weed control at 400 ppm [2] greater than 80% and a pest or weed control at 400 ppm [3] greater than 80%. The pest or weed control at 400 ppm [4] was greater than 80%, the pest or weed control at 12.5 ppm [5] was no less than 80% and the pest or weed control at 400 ppm [6] was greater than 80%. For the same compound, the pest or weed control at 400 ppm [7] was greater than 80%.
In the case of `CCS(=O)(=O)c1cc(-c2cccc(C#N)c2)cnc1-c1nc2cc(C(F)(F)F)ncc2n1C` [Compound P44], the melting point is reported as 257 to 259 °C.
With `CCS(=O)(=O)c1cc(-c2ccc(OC(F)(F)F)cc2)cnc1-c1nc2cc(C(F)(F)F)ncc2n1C` [Compound P45] the melting point was 181 to 183 °C.
Compound `CCS(=O)(=O)c1cc(-c2ccccc2)cnc1-c1nc2cc(C(F)(F)F)ncc2n1C` [Compound P39] has a melting point of 170 to 172 °C.
